Results reported in patent US6534524B1, “Indazole compounds and pharmaceutical compositions for inhibiting protein kinases, and methods for their use” (Agouron Pharmaceuticals, Inc., priority 1999, dated 2003).
Where “and” joins values, the source holds several entries; their conditions need not be identical. Equal values may be shown once. Read-outs that look alike come from different tables or passages of the source. Marks after values point to notes of the source that are not given here. One block for each compound: values may come before it.

What was measured:
human CHK1 (FL-CHK1) = biological target: T1, human CHK1 (FL-CHK1) (Homo sapiens, UniProt O14757); assay: CHK1 assay (coupled spectrophotometric, Syntide-2); type: biochemical; details: read-out: CHK-1 Ki
T1 construct: C-terminally His-tagged full-length human CHK1 (FL-CHK1); made in house; host or cells: baculovirus/insect cell system
T1 sequence (O14757 1-476): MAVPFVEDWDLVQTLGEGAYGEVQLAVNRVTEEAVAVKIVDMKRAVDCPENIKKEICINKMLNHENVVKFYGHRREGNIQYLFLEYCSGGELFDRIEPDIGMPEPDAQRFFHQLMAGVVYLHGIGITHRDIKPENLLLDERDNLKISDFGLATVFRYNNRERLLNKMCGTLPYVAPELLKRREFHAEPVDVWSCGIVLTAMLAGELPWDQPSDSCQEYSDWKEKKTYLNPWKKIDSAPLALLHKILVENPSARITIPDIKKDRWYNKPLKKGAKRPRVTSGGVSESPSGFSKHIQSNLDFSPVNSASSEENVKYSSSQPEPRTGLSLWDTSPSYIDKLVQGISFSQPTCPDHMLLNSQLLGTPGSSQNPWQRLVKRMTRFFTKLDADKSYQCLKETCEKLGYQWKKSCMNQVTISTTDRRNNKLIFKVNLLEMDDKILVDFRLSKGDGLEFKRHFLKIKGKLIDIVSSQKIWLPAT
Procedure, shortened: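 Full-length C-terminally His-tagged human CHK1 expressed in baculovirus/insect cells, used at 10 nM with Syntide-2 substrate. ADP formation coupled via PK/LDH to NADH oxidation, followed as absorbance decrease at 340 nm. Ki from initial rates at varying compound concentrations.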

CDK2/Cyclin A = CDK2/Cyclin A (Homo sapiens, UniProt P24941); assay: CDK2/Cyclin A assay ([32P]ATP, Rb fragment); type: biochemical; details: Table 3
CDK1 = CDK1 (Homo sapiens, UniProt P06493); assay: CDK1 inhibition; type: biochemical; details: Table 3
Chain of CDK1 (P06493 whole entry, species assumed, the tested form may be a part): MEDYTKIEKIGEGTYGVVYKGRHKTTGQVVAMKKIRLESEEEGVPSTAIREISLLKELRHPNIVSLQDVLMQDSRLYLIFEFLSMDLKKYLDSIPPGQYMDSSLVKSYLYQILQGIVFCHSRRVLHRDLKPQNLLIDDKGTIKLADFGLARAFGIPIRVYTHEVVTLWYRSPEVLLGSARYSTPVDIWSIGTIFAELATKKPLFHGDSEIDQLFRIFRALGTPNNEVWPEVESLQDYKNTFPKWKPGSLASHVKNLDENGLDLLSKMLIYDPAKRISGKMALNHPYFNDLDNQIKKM
Chain of CDK1 (P14635 whole entry partner, species assumed, the tested form may be a part): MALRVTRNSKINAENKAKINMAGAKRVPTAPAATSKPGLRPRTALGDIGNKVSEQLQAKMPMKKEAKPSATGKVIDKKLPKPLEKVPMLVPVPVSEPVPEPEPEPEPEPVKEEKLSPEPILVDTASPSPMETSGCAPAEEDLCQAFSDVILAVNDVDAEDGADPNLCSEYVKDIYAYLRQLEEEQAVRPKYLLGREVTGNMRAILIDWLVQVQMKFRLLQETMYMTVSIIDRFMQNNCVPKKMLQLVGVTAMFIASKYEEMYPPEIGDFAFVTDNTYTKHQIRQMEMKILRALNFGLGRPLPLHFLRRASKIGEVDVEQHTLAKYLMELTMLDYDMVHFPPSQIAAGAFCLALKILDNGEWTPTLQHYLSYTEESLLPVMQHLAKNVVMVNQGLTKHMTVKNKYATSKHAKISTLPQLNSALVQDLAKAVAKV

CDK4/Cyclin D3 complex = CDK4/Cyclin D3 complex (Homo sapiens, UniProt P11802); assay: CDK4/Cyclin D assay ([32P]ATP, Rb fragment)
Chain of CDK4/Cyclin D3 complex (P11802 whole entry, the tested form may be a part): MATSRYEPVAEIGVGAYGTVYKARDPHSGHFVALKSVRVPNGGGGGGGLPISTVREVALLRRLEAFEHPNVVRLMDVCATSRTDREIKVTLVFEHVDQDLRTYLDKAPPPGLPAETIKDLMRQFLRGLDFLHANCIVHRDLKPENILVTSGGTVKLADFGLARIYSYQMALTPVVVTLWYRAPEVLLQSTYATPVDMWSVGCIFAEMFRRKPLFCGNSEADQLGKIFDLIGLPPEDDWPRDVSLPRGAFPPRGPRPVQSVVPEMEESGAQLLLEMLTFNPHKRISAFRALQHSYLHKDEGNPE
Chain of CDK4/Cyclin D3 complex (P30281 whole entry partner, the tested form may be a part): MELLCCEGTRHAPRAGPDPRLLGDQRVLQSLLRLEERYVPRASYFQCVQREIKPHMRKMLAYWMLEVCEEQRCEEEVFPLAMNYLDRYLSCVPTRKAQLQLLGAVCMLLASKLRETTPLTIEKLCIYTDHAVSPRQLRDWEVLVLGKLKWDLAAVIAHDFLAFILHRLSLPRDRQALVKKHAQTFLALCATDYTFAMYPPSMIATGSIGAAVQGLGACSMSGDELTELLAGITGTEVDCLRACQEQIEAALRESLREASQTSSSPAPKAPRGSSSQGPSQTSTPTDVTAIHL

LCK tyrosine kinase = biological target: T2, LCK tyrosine kinase (Homo sapiens, UniProt P06239, C224D/P223M); assay: LCK spectrophotometric assay; type: biochemical; details: Table 1; for inhibition at 1 µM: read-out: Lck-P % inhibition; for Ki: read-out: Lck-P Ki
T2 construct: starting from amino acid residue 223 to the end of the protein at residue 509; made in house; host or cells: insect cells
T2 sequence (P06239 223-509 P223M/C224D): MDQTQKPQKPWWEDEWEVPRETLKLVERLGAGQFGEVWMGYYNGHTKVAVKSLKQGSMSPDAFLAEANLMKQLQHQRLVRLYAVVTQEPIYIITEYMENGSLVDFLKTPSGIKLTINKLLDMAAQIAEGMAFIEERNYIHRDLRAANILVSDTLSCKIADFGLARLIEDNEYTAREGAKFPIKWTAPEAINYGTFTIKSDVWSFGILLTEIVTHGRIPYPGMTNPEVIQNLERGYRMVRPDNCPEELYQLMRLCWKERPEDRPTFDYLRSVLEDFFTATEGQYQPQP
Experimental: The production of ADP from ATP that accompanies phosphoryl transfer was coupled to oxidation of NADH using phosphoenolpyruvate (PEP) and a system having pyruvate kinase (PK) and lactic dehydrogenase (LDH). The oxidation of NADH was monitored by following the decrease of absorbance at 340 nm (e340=6.22 cm^−1 mM^−1) using a Beckman DU 650 spectrophotometer. […] Ki values were determined by measuring enzyme activity in the presence of varying concentrations of test compounds. The data were analyzed using Enzyme Kinetic and Kaleidagraph software.
The spectrophotometric assay was carried out as described above for VEGF-R2, except for the following changes in concentration: LCK=60 nM, MgCl2=0 mM, poly(E4Y1)=20 mM.

[1] = tested on: human umbilical vein endothelial cells (HUVEC); assay: HUVEC proliferation assay (VEGF-stimulated, MTT); type: cell-based; details: Homo sapiens, HUVEC
human FGF-R1 = human FGF-R1 (Homo sapiens, UniProt P11362, C488A/C584S/L457V); assay: FGF-R spectrophotometric assay; details: for inhibition at 1 µM: read-out: FGF-P % inhibition, Table 1
Chain of human FGF-R1 (P11362 456-766 L457V/C488A/C584S): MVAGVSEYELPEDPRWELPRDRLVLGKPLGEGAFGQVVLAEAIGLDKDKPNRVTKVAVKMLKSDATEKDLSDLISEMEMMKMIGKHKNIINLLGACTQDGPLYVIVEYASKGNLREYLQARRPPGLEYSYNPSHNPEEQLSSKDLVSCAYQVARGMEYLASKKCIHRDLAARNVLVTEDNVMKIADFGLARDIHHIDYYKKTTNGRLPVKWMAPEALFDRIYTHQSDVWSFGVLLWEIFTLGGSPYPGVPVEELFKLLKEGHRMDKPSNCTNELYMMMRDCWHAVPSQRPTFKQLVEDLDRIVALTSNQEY

[2] = biological target: unphosphorylated VEGF-R2Δ50 (FLVK) (Homo sapiens, UniProt P35968, DEL940-989/E990V); assay: VEGF-R2 coupled spectrophotometric assay, unphosphorylated VEGF-R2Δ50 (FLVK); details: for Ki: FLVK Ki, Table 1
Chain of unphosphorylated VEGF-R2Δ50 (FLVK) (P35968 with tags, fused parts or gaps DEL940-989/E990V limits assumed): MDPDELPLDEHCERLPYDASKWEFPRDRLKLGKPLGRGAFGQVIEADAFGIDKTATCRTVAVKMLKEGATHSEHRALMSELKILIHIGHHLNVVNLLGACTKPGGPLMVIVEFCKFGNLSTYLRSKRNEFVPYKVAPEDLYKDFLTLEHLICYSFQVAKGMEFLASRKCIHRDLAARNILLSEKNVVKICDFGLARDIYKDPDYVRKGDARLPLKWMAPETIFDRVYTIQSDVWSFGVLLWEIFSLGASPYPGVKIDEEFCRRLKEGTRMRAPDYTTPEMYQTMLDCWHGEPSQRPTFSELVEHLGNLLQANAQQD

[3] = Determination of inhibitor concentration in mouse plasma after intraperitoneal and oral dosing; type: in vivo; details: for concentration at 7 h: female
Procedure, shortened: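 Plasma levels quantified by HPLC or LC-MS using a standard curve prepared in mouse plasma, following ethyl acetate extraction with internal standard and sodium hydroxide. Sampling at 0.5, 1, 4 h (ocular bleed) and 7 h (cardiac puncture) after oral or intraperitoneal dosing.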

[4] = biological target: phosphorylated VEGF-R2Δ50 (FLVK-P) (Homo sapiens, UniProt P35968, DEL940-989/E990V); assay: VEGF-R2 coupled spectrophotometric assay, phosphorylated VEGF-R2Δ50 (FLVK-P)
Chain of phosphorylated VEGF-R2Δ50 (FLVK-P) (P35968 with tags, fused parts or gaps DEL940-989/E990V limits assumed): as above

[5] = Human liver microsome (HLM) assay; type: in vitro ADME; details: human liver microsomes, 5 μM test compound
Procedure, shortened: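 LC-MS quantified test compound remaining after 0 and 2 h incubation with human liver microsomes. Triplicate samples, clarified by 10 min centrifugation at 14000 g.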

[6] = + albumin, read-out: HUVEC + albumin IC50
[7] = IP, 25 mg/kg, vehicle PEG400:H2O pH 2.3 60:40
[8] = PO, 50 mg/kg, vehicle PEG400:H2O pH 2.3 60:40
[9] = IP, 25 mg/kg, vehicle PEG400:H2O pH 2.3 60:40, read-out: Cmin (7 hr conc.)
[10] = PO, 50 mg/kg, vehicle PEG400:H2O pH 2.3 60:40, read-out: Cmin (7 hr conc.)
[11] = PO, 25 mg/kg, vehicle PEG400:H2O pH 2.3 30:70
[12] = PO, 25 mg/kg, vehicle PEG400:H2O pH 2.3 30:70, read-out: Cmin (7 hr conc.)
[13] = IP, 25 mg/kg, vehicle PEG400:H2O pH 2.3 30:70
[14] = PO, 50 mg/kg, vehicle PEG400:H2O pH 2.3 30:70

SMILES: Fc1cccc(/C=C/c2n[nH]c3cc(-c4ccncc4)ccc23)c1 [Example 29(g), 6-Pyrid-4-yl-3-E-[2-(3-fluorophenyl)ethenyl]-1H-indazole]
- Ki (human CHK1 (FL-CHK1); Table 3): 68 nM
- Ki (CDK2/Cyclin A): 1400 nM
- Ki (CDK1): 390 nM
- Ki (CDK4/Cyclin D3 complex): 1100 nM

- Ki (human CHK1 (FL-CHK1); Table 3): 87 nM
- inhibition at 1 µM (CDK2/Cyclin A; compound concentration 1 μM): 84%
- Ki (CDK1): 146 nM
- inhibition at 1 µM (CDK4/Cyclin D3 complex; read-out: CDK4 % inhibition): 79%
SMILES: C(=N\n1cccc1)/c1n[nH]c2cc(-c3ccncc3)ccc12 [Example 51, 6-Pyrid-4-yl-3-E-(N-(pyrrol-1-yl)iminomethyl)-1H-indazole]

SMILES: CCn1nc(C)cc1C(=O)Nc1cc(C(=O)c2ccc3c(/C=C/c4ccccn4)n[nH]c3c2)c(C)cc1C [Example 41(ll), 6-[2,4-Dimethyl-5-((1-Ethyl-3-methyl-1H-pyrazol-5-yl)carboxamido)benzoyl]-3-E-[2-(pyridin-2-yl)ethenyl]-1H-indazole]
- inhibition at 1 µM (LCK tyrosine kinase; compound concentration 1 μM): 14%
- IC50 [1, 6]: 23 nM
- inhibition at 1 µM (human FGF-R1; compound concentration 1 μM): 91%
- inhibition at 0.05 µM ([2]; read-out: FLVK % inhibition): 95%

SMILES: O=C(c1cccc(NC(=O)c2ccccn2)c1)c1ccc2c(/C=C/c3ccccn3)n[nH]c2c1 [Example 41(aa), 6-[3-(Pyridin-2-ylcarboxamido)benzoyl]-3-E-[2-(pyridin-2-yl)ethenyl]-1H-indazole]
- inhibition at 1 µM (LCK tyrosine kinase; compound concentration 1 μM): 49%
- IC50 [1, 6]: 5.2 nM
- IC50 ([1]; read-out: HUVEC IC50): 1 nM
- AUClast [3, 7]: 6659 ng·h/mL
- plasma half-life (T1/2) [3, 7]: 2.1 h
- AUClast [3, 8]: 289 ng·h/mL
- plasma half-life (T1/2) [3, 8]: 0.9 h
- concentration at 7 h [3, 9]: 124 ng/mL
- concentration at 7 h [3, 10]: 5 ng/mL
- inhibition at 1 µM (human FGF-R1; compound concentration 1 μM): 37%
- Ki [2]: 0.11 nM

SMILES: Cc1cccc(/C=C/c2n[nH]c3cc(-c4ccncc4)ccc23)c1 [Example 29(b), 6-Pyrid-4-yl-3-E-[2-(3-methylphenyl)ethenyl]-1H-indazole]
- Ki (CDK2/Cyclin A): 3000 nM
- Ki (CDK1): 900 nM
- Ki (CDK4/Cyclin D3 complex): 3900 nM

SMILES: Cc1cnccc1C(=O)Nc1cccc(C(=O)c2ccc3c(/C=C/c4ccccn4)n[nH]c3c2)c1 [Example 41(j), 6-[3-((3-Methylpyridin-4-yl)carboxamido)benzoyl]-3-E-[2-(pyridin-2-yl)ethenyl]-1H-indazole]
- inhibition at 1 µM (LCK tyrosine kinase; compound concentration 1 μM): 16%
- IC50 [1, 6]: 7.7 nM
- AUClast [3, 11]: 1476 ng·h/mL
- plasma half-life (T1/2) [3, 11]: 1.3 h
- concentration at 7 h [3, 12]: 17 ng/mL
- inhibition at 1 µM (human FGF-R1; compound concentration 1 μM): 41%
- inhibition at 0.05 µM ([2]; read-out: FLVK % inhibition): 98%

- inhibition at 1 µM (LCK tyrosine kinase; compound concentration 1 μM): 36%
- inhibition at 1 µM (human FGF-R1; compound concentration 1 μM): 88%
- Ki [2]: 0.72 nM
- Ki [4]: 4.7 nM
SMILES: O=C(c1cccc(NC(=O)c2ccno2)c1)c1ccc2c(/C=C/c3ccccc3)n[nH]c2c1 [Example 19(l)]
- IC50 [1, 6]: 100 nM

SMILES: Oc1cccc(Oc2ccc3c(/C=C/c4ccccc4)n[nH]c3c2)c1 [Example 9(a), 3-(E-styryl)-6-[3-hydroxyphenoxy]-1H-indazole]
- Ki (LCK tyrosine kinase): 162 nM
- Ki (human CHK1 (FL-CHK1); Table 1): 400 nM
- Ki (CDK4/Cyclin D3 complex): 1700 nM
- Ki [2]: 2.4 nM
- Ki [4]: 16 nM

SMILES: COc1cccc(/C=C/c2n[nH]c3cc(-c4ccncc4)ccc23)c1 [Example 29(e), 6-Pyrid-4-yl-3-E-[2-(3-methoxyphenyl)ethenyl]-1H-indazole]
- Ki (human CHK1 (FL-CHK1); Table 3): 74 nM
- Ki (CDK2/Cyclin A): 1400 nM
- Ki (CDK1): 593 nM
- Ki (CDK4/Cyclin D3 complex): 2000 nM

SMILES: C(=C\c1n[nH]c2cc(-c3ccncc3)ccc12)/c1ccc2c(c1)OCO2 [Example 29(r), 6-Pyrid-4-yl-3-E-[2-(3,4-methylenedioxyphenyl)ethenyl]-1H-indazole]
- Ki (human CHK1 (FL-CHK1); Table 3): 72 nM
- Ki (CDK2/Cyclin A): 1300 nM
- Ki (CDK1): 66 nM
- Ki (CDK4/Cyclin D3 complex): 1100 nM

SMILES: CCCn1nc(C)cc1C(=O)Nc1cc(C(=O)c2ccc3c(/C=C/c4ccccn4)n[nH]c3c2)ccc1C [Example 41(ii), 6-[3-((1-n-Propyl-3-methyl-1H-pyrazol-5-yl)carboxamido)-4-methylbenzoyl]-3-E-[2-(pyridin-2-yl)ethenyl]-1H-indazole]
- inhibition at 1 µM (LCK tyrosine kinase; compound concentration 1 μM): 18%
- IC50 [1, 6]: 13 nM
- AUClast [3, 11]: 7094 ng·h/mL
- Cmax [3, 11]: 1826 ng/mL
- plasma half-life (T1/2) [3, 11]: 2.3 h
- concentration at 7 h [3, 12]: 346 ng/mL
- Ki (human FGF-R1): 11 nM
- inhibition at 0.05 µM ([2]; read-out: FLVK % inhibition): 57%

SMILES: C(=C\c1n[nH]c2cc(-c3ccnc4[nH]ncc34)ccc12)/c1ccccc1 [Example 52(a), 6-(7-Azaindazol-4-yl)-3-E-styryl-1H-indazole]
- inhibition at 1 µM (CDK1; compound concentration 1 μM): 39%
- inhibition at 1 µM ([2]; read-out: FLVK % inhibition): 60%

SMILES: O=C(c1cccc(NC(=O)C2C[C@H]2c2ccccc2)c1)c1ccc2c(/C=C/c3ccccn3)n[nH]c2c1 (stereo partly drawn) [Example 41(l), 6-[3-((2-RS-trans-Phenylcyclopropyl)carboxamido)benzoyl]-3-E-[2-(pyridin-2-yl)ethenyl]-1H-indazole]
- Lck-P % inhibition (LCK tyrosine kinase; compound concentration 1 μM, 1 µM): 38%* and 63%*
- AUClast [3, 13]: 1854 ng·h/mL
- Cmax [3, 13]: 623 ng/mL
- plasma half-life (T1/2) [3, 13]: 3.1 h
- AUClast [3, 14]: 212 ng·h/mL
- Cmax [3, 14]: 104 ng/mL
- plasma half-life (T1/2) [3, 14]: 0.5 h
- concentration at 7 h ([3]; IP, 25 mg/kg, vehicle PEG400:H2O pH 2.3 30:70, read-out: Cmin (7 hr conc.)): 102 ng/mL
- concentration at 7 h ([3]; PO, 50 mg/kg, vehicle PEG400:H2O pH 2.3 30:70, read-out: Cmin (7 hr conc.)): 0 ng/mL
- FGF-P % inhibition (human FGF-R1; Table 1, compound concentration 1 μM, 1 µM): 66%
- inhibition at 1 µM (human FGF-R1; compound concentration 1 μM): 76%
- Ki [2]: 0.04 nM and 0.24 nM

SMILES: O=C(Nc1cc(Nc2ccc3c(/C=C/c4ccccc4)n[nH]c3c2)ccc1F)c1ccccc1 [Example 47, 6-[N-(3-Benzamido-4-fluorophenyl)amino]-3-E-styryl-1H-indazole]
- inhibition at 1 µM (LCK tyrosine kinase; compound concentration 1 μM): 50%
- AUClast [3, 13]: 236 ng·h/mL
- Cmax [3, 13]: 39 ng/mL
- plasma half-life (T1/2) [3, 13]: 19.9 h
- AUClast [3, 14]: 327 ng·h/mL
- Cmax [3, 14]: 84 ng/mL
- plasma half-life (T1/2) [3, 14]: 3.4 h
- inhibition at 1 µM (human FGF-R1; compound concentration 1 μM): 88%
- Ki [2]: 0.25 nM

SMILES: O=C(Nc1cccc(C(=O)c2ccc3c(/C=C/c4ccccn4)n[nH]c3c2)c1)c1ccccc1 [Example 42(a), 6-(3-Benzamidobenzoyl)-3-E-[2-(pyridin-2-yl)ethenyl]-1H-indazole]
- Ki (LCK tyrosine kinase): 53 nM
- % remain (HLM, 2 h) [5]: 92%
- AUClast [3, 7]: 19899 ng·h/mL
- plasma half-life (T1/2) [3, 7]: 5.0 h
- AUClast [3, 8]: 8384 ng·h/mL
- plasma half-life (T1/2) [3, 8]: 2.0 h
- concentration at 7 h [3, 9]: 1640 ng/mL
- concentration at 7 h [3, 10]: 341 ng/mL
- Ki (human FGF-R1): 65 nM
- Ki [2]: 0.046 nM
